Measurements published in patent publication US6875575B1, “Diagnostic methods for neoplasia” (OSI Pharmaceuticals, Inc., priority 1998, dated 2005).
Entries after “also recorded” stand apart in the source; their conditions may differ. Where two headings read alike, the source gives them in different places.

Assays:
neoplastic cells = test: Apoptosis induction in neoplastic cells; assay type: cell-based
[1] = test system: PDE peak B (novel cGMP-specific PDE); test: cGMP hydrolysis by PDE peak B from SW-480 cells; assay type: biochemical, human
PDE peak A (PDE5) = molecular target: T1, PDE peak A (PDE5) (Homo sapiens, UniProt O76074); test: cGMP hydrolysis by PDE peak A from SW-480 cells; assay type: biochemical
T1 construct: SW-480 cells are collected and homogenized; endogenous in cells; host or cells: SW-480 cells; supernatant fractionated on DEAE-Trisacryl M, peak A

[2] = test system: colonic polyps (dysplastic tissue); test: Apoptosis clinical study: apoptotic labeling index (ALI) in polyps; assay type: in vivo, human
Experimental: (§1) Increases in apoptosis are indicative that the neoplasia in question is sensitive to treatment with a cGMP-specific PDE inhibitor, such as sulindac sulfone (aposulind). A human in vivo aposulind-induced selective induction of apoptosis in colonic polyps is described below. Six familial polyposis patients per group were administered one of three doses of aposulind (200 mg, 400 mg which was later lowered to 200 mg for most patients in the group, or 300 mg) twice daily (BID).
(§2) Biopsies are taken from patients and used to investigate possible cellular mechanisms of apoptosis. Biopsy samples are placed in transfer media (500 ml RPMI 1640 containing 50 ml fetal calf serum, 5×10^8 units penicillin G, and 5×10^6 μg streptomycin) and kept on ice for less than 1 hour until transfer to the pathology department. Upon receipt in the pathology department, samples are removed from the transfer media and oriented mucosa up, serosa down on filter paper, placed between biopsy sponges in a tissue cassette, and fixed in 10% neutral buffered formalin for 24 hours. Samples are then transferred to 70% ethanol and embedded in paraffin. Samples are oriented perpendicularly to the tissue cassette during final orientation in paraffin for longitudinal crypt exposure and easy visualization of mucosa and the relation to the basement membrane.
Four micron sections of tissue were cut, mounted, deparaffinized, rehydrated in graded alcohol, and treated with pepsin (5 mg/ml) to digest protein in the tissue. Sections were washed and treated with 2% hydrogen peroxide (H2O2) in PBS to quench endogenous peroxidase and washed again. Tissue samples were then circled with a PAP pen (Research Products Int., 800-323-9814) to produce a hydrophobic barrier to concentrate reagents on the sample. […]
(§3) Apoptotic and nonapoptotic cells are counted on the basis of staining and morphology. An apoptotic labeling index (ALI) is calculated by dividing the total number of apoptotic cells counted by the total number of epithelial cells counted and expressing the quotient as a percentage.

normal mucosa = test: Apoptosis clinical study: ALI in normal mucosa; assay type: in vivo, human; details: any of the treatment groups
Experimental: as §1
as §2, with “Samples are then transferred to 70% ethanol and embedded in paraffin. Samples are oriented perpendicularly to the tissue cassette during final orientation in paraffin for longitudinal crypt exposure and easy visualization of mucosa and the relation to the basement membrane.” left out
as §3

HT-29 cells = test: Apoptosis and necrosis by morphology (acridine orange/ethidium bromide); assay type: cell-based; details: HT-29 cells treated for six days
Experimental: In one type of apoptosis assay, suspected neoplastic cells are removed from a patient. The cells are then grown in culture in the presence or absence of a cGMP-specific PDE inhibitor. Apoptotic cells are measured by combining both the attached and “floating” compartments of the cultures. The protocol for treating tumor cell cultures with PDE inhibitors and related compounds to obtain a significant amount of apoptosis has been described in the literature. (See, Piazza, G. A., et al., Cancer Research, 55:3110-16, 1995, which is incorporated herein by reference). The novel features of this assay include collecting both floating and attached cells, identification of the optimal treatment times and dose range for observing apoptosis, and identification of optimal cell culture conditions. […]
Apoptotic and necrotic cell death was determined as previously described (Duke and Cohen, In: Current Protocols in Immunology, 3.17.1-3.17.16, New York, John Wiley and Sons, 1992). […]
The diagnostic method of this invention is used to determine whether a particular neoplasia is sensitive to treatment with a cGMP-specific PDE inhibitor. The apoptosis inducing activity for a series of phosphodiesterase inhibitors, specific for different PDEs, was determined. […] Apoptosis and necrosis were determined morphologically after acridine orange and ethidium bromide labeling in accordance with the assay described, supra.

inhibition of peak A / PDE5 (in words) (PDE peak A (PDE5)) | SMILES | induction of apoptosis in neoplastic cells (in words) (neoplastic cells) | inhibition of peak B / new cGMP-PDE (in words) [1] | also measured
– | O=C(O)C1CCN(c2nc(NCc3ccc4c(c3)OCO4)c3cc(Cl)ccc3n2)CC1 [Compound E4021] | do not have significant apoptosis-inducing or growth-inhibiting properties | E4021-insensitive | inhibition of peak B / new cGMP-PDE (in words) ([1]; listed as E402 1): relatively insensitive to inhibition
competitively inhibit | COc1cc(/C=C2/C(C)=C(CC(=O)NCc3ccccc3)c3cc(F)ccc32)cc(OC)c1OC [Compound E, (Z)-5-fluoro-2-methyl-1-(3,4,5-trimethoxybenzylidene)-3-indenylacetamide, N-benzyl] | induce apoptosis in neoplastic cells | competitively inhibit | –
– | CC1=C(CC(=O)O)c2cc(F)ccc2/C1=C\c1ccc(S(C)(=O)=O)cc1 [Exisulind, (Z)-5-fluoro-2-methyl-1-[[4-(methylsulfonyl)phenyl]methylene]indene-3-yl acetic acid] | – | – | change in ALI following treatment ([2]; 200 mg BID group): did not demonstrate any elevation in ALI; change in ALI in polyps ([2]; 300 mg BID, six months of treatment): two fold increase in ALI; change in ALI of dysplastic tissue following drug treatment ([2]; 400/200 mg BID group when uniformly dosed at 400 mg BID): two-fold elevation in ALI; normal mucosa ALI versus baseline ALI during treatment (normal mucosa): no significant change; apoptotic and necrotic cell death (FIG. 1) (HT-29 cells): capable of causing apoptotic cell death without inducing neoplastic cell necrosis
– | CC1(C)C(=O)Nc2ccc(C3=NNC(=O)CC3)cc21 [Indolidan] | – | relatively insensitive | –
– | COc1ccc(C2CNC(=O)C2)cc1OC1CCCC1 (centres unmarked) [Rolipram] | – | relatively insensitive | –
inhibit | CSc1ccc(/C=C2/C(C)=C(CC(=O)O)c3cc(F)ccc32)cc1 [Sulindac sulfide, sulindac sulfide] | induce apoptosis in neoplastic cells | inhibit | inhibition of peak A / PDE5 (in words) (PDE peak A (PDE5); listed as sulindac sulfide): competitively inhibit; inhibition of peak B / new cGMP-PDE (in words) ([1]; listed as sulindac sulfide): competitively inhibit; apoptotic and necrotic cell death (FIG. 1) (HT-29 cells): capable of causing apoptotic cell death without inducing neoplastic cell necrosis
– | CCOC(=O)C1=C[C@]2(CC)CCCN3CCc4c(n1c1ccccc41)[C@@H]32 [Vinpocetine] | – | relatively insensitive | –
competitive inhibition | CCCOc1ccccc1-c1nc2nn[nH]c2c(=O)[nH]1 [Zaprinast] | do not have significant apoptosis-inducing or growth-inhibiting properties | relatively insensitive to inhibition; also recorded: zaprinast-insensitive | –

SMILES | inhibition of peak A / PDE5 (in words) (PDE peak A (PDE5)) | induction of apoptosis in neoplastic cells (in words) (neoplastic cells) | inhibition of peak B / new cGMP-PDE (in words) [1] | also measured
CCCc1nn(C)c2c(=O)[nH]c(-c3cc(S(=O)(=O)N4CCN(C)CC4)ccc3OCC)nc12 [Sildenafil] | inhibited activity of peak A | do not have significant apoptosis-inducing or growth-inhibiting properties | relatively insensitive to inhibition | –
